Here are results for ten molecules from ChEMBL document CHEMBL1201862, “PubChem BioAssay data set” (2004).

Some test systems named below: Hs-578T; SNB-75; T47D; MDA-MB-231; SK-MEL-5; PC-3; BT-549; NCI-H460; MDA-MB-435; MCF7; SW-620; SK-OV-3; HL-60; OVCAR-5; U-251; RPMI-8226; ACHN; SF-268; SK-MEL-2; DU-145.
Holding throughout (assay): NCI-60 cell line screen, 48 h

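In this assay, cells in 96-well plates receive the compound at five concentrations for 48 hours. Endpoints are linearly interpolated between the surrounding concentrations. Here, GI50 denotes the concentration required for 50% inhibition of growth.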 Activity calls are given as the source filed them. Cut-off read from the data, not from the text of the source: active = GI50 up to about 1.1 µM and inactive = higher.

Consider `CNC(=O)CCCNC(=O)CCCC(=O)N(C)C`, for which the GI50 with Hs-578T, in the assay with SNB-75, in the assay on T47D, in the assay on MDA-MB-231, in the assay on SK-MEL-5 and with PC-3 was > 100 µM (inactive) each time. The GI50 with BT-549 is > 100 µM (inactive); in the assay on NCI-H460 it was > 100 µM (inactive); in the assay on MDA-MB-435, > 100 µM (inactive); with MCF7, > 100 µM (inactive); in the assay on SW-620, 45.5 µM (inactive); in the assay on SK-OV-3, > 100 µM (inactive). In addition, the GI50 in the assay with HL-60, with OVCAR-5, in the assay with U-251, with RPMI-8226, in the assay with ACHN and in the assay on SF-268 was > 100 µM (inactive) throughout. Also, the GI50 in the assay on SK-MEL-2 and with DU-145 was > 100 µM (inactive) each time.
In the case of `CC(=O)OCCOCn1cc(C=O)c2ccccc21`, the GI50 was > 100 µM (inactive) in the assay with Hs-578T; > 100 µM (inactive) in the assay with SNB-75; > 100 µM (inactive) in the assay on T47D; > 100 µM (inactive) in the assay on MDA-MB-231; 75 µM (inactive) with SK-MEL-5; > 100 µM (inactive) in the assay with PC-3. Moreover, the GI50 in the assay on BT-549 is > 100 µM (inactive); in the assay with NCI-H460, 33.2 µM (inactive); in the assay on MDA-MB-435, > 100 µM (inactive); in the assay on MCF7, > 100 µM (inactive); with SW-620 it was > 100 µM (inactive); in the assay on SK-OV-3, > 100 µM (inactive). The GI50 with HL-60 is > 100 µM (inactive); with OVCAR-5, 67.5 µM (inactive); in the assay with U-251, > 100 µM (inactive); in the assay on RPMI-8226, > 100 µM (inactive); with ACHN, > 100 µM (inactive); in the assay with SF-268 it was > 100 µM (inactive). The GI50 in the assay with SK-MEL-2 and in the assay on DU-145 was > 100 µM (inactive) each time.
As to `COc1cccc(NC(=O)CC(=O)NN)c1`, the GI50 in the assay on Hs-578T, in the assay with SNB-75, in the assay on T47D, in the assay with MDA-MB-231, in the assay on SK-MEL-5 and with PC-3 was > 100 µM (inactive) each time. Moreover, the GI50 in the assay with BT-549, in the assay on NCI-H460, in the assay on MDA-MB-435, with MCF7, with SW-620 and in the assay on SK-OV-3 was > 100 µM (inactive) each time. The GI50 in the assay on HL-60, in the assay with OVCAR-5, in the assay on U-251, in the assay with RPMI-8226, in the assay on ACHN and in the assay on SF-268 was > 100 µM (inactive) throughout. Moreover, the GI50 in the assay with SK-MEL-2 and in the assay on DU-145 was > 100 µM (inactive) throughout.
For `CCN(CC)Cc1c(/C=C\c2cc(OC)c(OC)c(OC)c2)ccc(OC)c1O`, the GI50 with Hs-578T is 2.08 µM (inactive); in the assay with SNB-75, 1.84 µM (inactive); in the assay with T47D it was > 100 µM (inactive); in the assay with MDA-MB-231, 4.28 µM (inactive); with SK-MEL-5 it was 2.68 µM (inactive); in the assay on PC-3, 1.8 µM (inactive). In addition, the GI50 with BT-549 is 6.01 µM (inactive); with NCI-H460, 3.48 µM (inactive); with MDA-MB-435, 0.264 µM (active); in the assay with MCF7, 3.17 µM (inactive); in the assay with SW-620 it was 2.77 µM (inactive); in the assay on SK-OV-3, 2.12 µM (inactive). Besides, the GI50 is 3.85 µM (inactive) in the assay with HL-60; 9.48 µM (inactive) in the assay with OVCAR-5; 2.87 µM (inactive) in the assay with U-251; 3 µM (inactive) with RPMI-8226; 8.59 µM (inactive) with ACHN; 5.21 µM (inactive) in the assay on SF-268. Moreover, the GI50 with SK-MEL-2 is 6.62 µM (inactive); with DU-145, 3.72 µM (inactive).
Turning to `Brc1ccc2c(-c3nc(-c4c[nH]c5ccc(Br)cc45)cs3)c[nH]c2c1`, the GI50 was 7.21 µM (inactive) in the assay with Hs-578T; 14.5 µM (inactive) in the assay on SNB-75; 4.86 µM (inactive) with T47D; 3.69 µM (inactive) in the assay on MDA-MB-231; 4.51 µM (inactive) with SK-MEL-5; 6 µM (inactive) with PC-3. Besides, the GI50 is 13.3 µM (inactive) in the assay with BT-549; 2.68 µM (inactive) with NCI-H460; 5.26 µM (inactive) in the assay on MDA-MB-435; 0.887 µM (active) in the assay with MCF7; 4.61 µM (inactive) with SW-620; 15.4 µM (inactive) in the assay with SK-OV-3. Also, the GI50 with HL-60 was 6.43 µM (inactive); with OVCAR-5 it was 2.96 µM (inactive); in the assay with U-251, 4.43 µM (inactive); with RPMI-8226, 3.43 µM (inactive); in the assay with ACHN, 1.67 µM (inactive); with SF-268 it was 4.82 µM (inactive). For the same molecule, the GI50 in the assay with SK-MEL-2 was 6.25 µM (inactive); with DU-145 it was 5.77 µM (inactive).
In the case of `Brc1ccc2[nH]cc([C@@H]3CN[C@@H](c4c[nH]c5ccc(Br)cc45)CN3)c2c1`, the GI50 with Hs-578T is 6.95 µM (inactive); with SNB-75 it was 2.78 µM (inactive); in the assay with T47D it was 8.13 µM (inactive); with MDA-MB-231, 3.79 µM (inactive); with SK-MEL-5, 7.93 µM (inactive); with PC-3 it was 3.35 µM (inactive). For the same molecule, the GI50 is 14.8 µM (inactive) in the assay with BT-549; 7.57 µM (inactive) in the assay on NCI-H460; 3.9 µM (inactive) in the assay with MDA-MB-435; 3.66 µM (inactive) in the assay on MCF7; 4.18 µM (inactive) in the assay with SW-620; 12.7 µM (inactive) in the assay on SK-OV-3. Also, the GI50 in the assay with HL-60 was 1.82 µM (inactive); in the assay on OVCAR-5, 7.89 µM (inactive); in the assay on U-251 it was 4.39 µM (inactive); in the assay on RPMI-8226 it was 2.12 µM (inactive); with ACHN, 2.33 µM (inactive); with SF-268, 10.4 µM (inactive). The figures for the GI50 with SK-MEL-2 and in the assay on DU-145 were 8.95 µM (inactive) and 3.47 µM (inactive), respectively.
Turning to `C=C(C)[C@H]1C=C[C@@H](OC(=O)c2cccnc2)[C@@]23CO[C@@](C)([C@H](OC(=O)c4cccnc4)[C@@]4(OC(C)=O)C[C@H](C)[C@H](OCCC)[C@@H]4[C@H]2OC(C)=O)[C@H]13`, the GI50 in the assay on Hs-578T is 13.5 µM (inactive); with SNB-75, 3.82 µM (inactive); with T47D, > 15 µM (inactive); in the assay with MDA-MB-231, > 15 µM (inactive); with SK-MEL-5 it was > 15 µM (inactive); with PC-3 it was 7.74 µM (inactive). Also, the GI50 with BT-549 was > 15 µM (inactive); in the assay on NCI-H460 it was 4.94 µM (inactive); in the assay on MDA-MB-435, 9.68 µM (inactive); in the assay with MCF7 it was > 15 µM (inactive); with SW-620, > 15 µM (inactive); in the assay on SK-OV-3, > 15 µM (inactive). In addition, the GI50 was 3.35 µM (inactive) with HL-60; > 15 µM (inactive) in the assay with OVCAR-5; > 15 µM (inactive) in the assay on U-251; 9.95 µM (inactive) in the assay on RPMI-8226; > 15 µM (inactive) in the assay with ACHN; > 15 µM (inactive) with SF-268. Moreover, the GI50 in the assay with SK-MEL-2 and in the assay with DU-145 was > 15 µM (inactive) in each case.
Regarding `CC(C)(C)c1cc(C(=O)/C=C/c2ccc3c(c2)OCO3)cc(C(C)(C)C)c1O`, the GI50 in the assay with Hs-578T is 6.93 µM (inactive); in the assay with SNB-75 it was 3.2 µM (inactive); with T47D, 2.55 µM (inactive); in the assay on MDA-MB-231, 8.11 µM (inactive); in the assay on SK-MEL-5 it was 4.2 µM (inactive); with PC-3, 3.99 µM (inactive). In addition, the GI50 in the assay on BT-549 is 6.3 µM (inactive); in the assay with NCI-H460, 4.8 µM (inactive); in the assay on MDA-MB-435, 2.26 µM (inactive); with MCF7 it was 5.28 µM (inactive); in the assay with SW-620, 5.96 µM (inactive); with SK-OV-3, 15.8 µM (inactive). For the same molecule, the GI50 is 3.07 µM (inactive) with HL-60; 16.3 µM (inactive) in the assay on OVCAR-5; 6.68 µM (inactive) with U-251; 4.39 µM (inactive) in the assay on RPMI-8226; 8.55 µM (inactive) in the assay with ACHN; 8.79 µM (inactive) with SF-268. Also, the GI50 in the assay on SK-MEL-2 is 3.26 µM (inactive); with DU-145, 5.06 µM (inactive).
With `COC(=O)c1ccc(NCc2cc(O)c3ccccc3c2O)cc1`, the GI50 with Hs-578T is 37.7 µM (inactive); in the assay with SNB-75, 22.5 µM (inactive); with T47D it was 5.12 µM (inactive); in the assay on MDA-MB-231, 2.17 µM (inactive); in the assay with SK-MEL-5, 1.51 µM (inactive); in the assay on PC-3, 17.2 µM (inactive). Also, the GI50 was 16.6 µM (inactive) in the assay on BT-549; 7.31 µM (inactive) in the assay with NCI-H460; 2.11 µM (inactive) with MDA-MB-435; 3.68 µM (inactive) with MCF7; 12.9 µM (inactive) with SW-620; 16.8 µM (inactive) with SK-OV-3. Moreover, the GI50 in the assay on HL-60 is 3.3 µM (inactive); in the assay with OVCAR-5, 21.6 µM (inactive); in the assay with U-251 it was 16.7 µM (inactive); with RPMI-8226 it was 3.45 µM (inactive); in the assay on ACHN, 10.8 µM (inactive); in the assay on SF-268 it was 22.4 µM (inactive). In addition, the results for the GI50 in the assay with SK-MEL-2 and in the assay on DU-145 were 18.2 µM (inactive) and 15.8 µM (inactive), respectively.
As for `C=C(C)[C@@H]1CC[C@]2(C(=O)O)CC[C@]3(C)[C@H](CC[C@@H]4[C@@]5(C)CC[C@H](O)C(C)(C)[C@@H]5CC[C@]43C)[C@@H]12` [BETULINIC ACID], the GI50 in the assay with Hs-578T was 10.8 µM (inactive); with SNB-75, 8.87 µM (inactive); in the assay on T47D, 7.13 µM (inactive); with MDA-MB-231, 3.91 µM (inactive); with SK-MEL-5, 4.19 µM (inactive); with PC-3, 7.48 µM (inactive). Further, the GI50 is 2.53 µM (inactive) in the assay with BT-549; 7.28 µM (inactive) in the assay with NCI-H460; 13.7 µM (inactive) with MDA-MB-435; 13.7 µM (inactive) with MCF7; 18.2 µM (inactive) in the assay with SW-620; 15.9 µM (inactive) in the assay on SK-OV-3. Also, the GI50 with HL-60 was 2.97 µM (inactive); with OVCAR-5, 12.4 µM (inactive); in the assay on U-251, 5.53 µM (inactive); with RPMI-8226 it was 7.36 µM (inactive); in the assay on ACHN, 8.28 µM (inactive); in the assay on SF-268 it was 7.6 µM (inactive). Moreover, the GI50 is 12.4 µM (inactive) in the assay on SK-MEL-2 and 9.71 µM (inactive) with DU-145.
